The subject of the first data set is human cytomegalovirus (HCMV). The data set is described as follows: anti-HCMV screening test: spread of the cytopathogenic effect in HELF cell cultures, 96-well microtitre plates. Type of data set: cell-based. To be noted: Human betaherpesvirus 5; HCMV-infected HELF cells, CPE, Neutral Red staining. On the procedure:
The anti-HCMV action was determined in a screening test system in 96-well microtitre plates with the aid of human embryonic lung fibroblast (HELF) cell cultures. The effect of the substances on the spread of the cytopathogenic effect was determined in comparison with the reference substance ganciclovir (Cymevene® sodium), a clinically approved anti-HCMV chemotherapeutic.
The substances dissolved (50 mM) in DMSO (dimethyl sulphoxide) are investigated on microtitre plates (96-well) in duplicate determinations (4 substances/plate). Toxic and cytostatic substance effects are additionally detected at the same time. After the appropriate substance dilutions (1:2) on the microtitre plate, a suspension of 50-100 HCMV-infected HELF cells and […] non-infected HELF cells in Eagle's MEM with 10% foetal calf serum is added to each well, and the plates are incubated at 37° C. in a CO2 incubator for several days. After this time, the cell lawn in the sub-stance-free virus controls, starting from 50-100 infectious centres, is completely destroyed by the cytopathogenic effect of the HCMV (100% CPE). After staining with Neutral Red and fixing with formalin/methanol, the plates are assessed with the aid of a projection microscope (plaque-viewer).
In turn, `CN(C)c1cccc2c(S(=O)(=O)Nc3ccc(NC(=O)C(C)(C)CCl)cc3)cccc12` [Example 16] displayed an EC50 of 28 nM.

As to `CN(C)c1cccc2c(S(=O)(=O)Nc3ccc(NC(=O)C(C)(C)CN)cc3)cccc12` [Example 25], the EC50 is 640 nM.

For the compound `CN(C)c1cccc2c(S(=O)(=O)Nc3ccc(NC(=O)C(C)(CO)CO)cc3)cccc12` [Example 24], it took 880 nM to reach a half-maximal effect (EC50).

`CN(C)c1cccc2c(S(=O)(=O)Nc3ccc(NC(=O)C(C)(C)CF)cc3)cccc12` [Example 13] had an EC50 of 64 nM.

System in the next data set: not given
Assay: not given
Details: not given
For the compound `CC(=O)Nc1ccc(S(=O)(=O)Nc2ccc(NC(=O)C(C)(C)C)cc2)c2ccccc12`, the melting point was more than 240 °C.

For the compound `CNc1ccc(S(=O)(=O)Nc2ccc(NC(=O)C(C)(C)C)cc2)c2ccccc12`, the melting point was 248 °C (dec.).

Turning to `CC(C)(C)C(=O)Nc1ccc(NS(=O)(=O)c2ccc(N)c3ccccc23)cc1`, the melting point was determined as 216 °C.

As usually defined, the EC50 is the concentration needed to bring the measured effect to its halfway point. As a reminder, the melting point is the temperature, or range, at which the solid turns liquid.
